Usually EC50 stands for the concentration that produces a half-maximal response.

Bounds are passed on as bounds.

The first experiment concerns U2OS_Bim cells. Kind of experiment: Apoptosis inhibition assay (Bim-induced apoptosis, cell viability by ATP level). It counts as cell-based. Particulars: U2OS_Bim cells; estimated based on preliminary results; numbering of Tables 4a/4b; read-out: EC50. The method in brief:
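Apoptosis was triggered by doxycycline (0.1 μg/mL) induction of Bim, one hour after compound addition to U2OS_Bim cells. Survival was measured after 24 h from cellular ATP (CellTiter-Glo), relative to DMSO, with zVAD at 20 μM as rescue control. Data are duplicate means, some estimated from preliminary results.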
As to `COc1ccc(Cn2cc(-c3cc(C(F)(F)F)nc([S+]([O-])Cc4ccccn4)n3)ccc2=O)cc1OC` (centres unmarked) [Compound 187], the EC50 was less than 10 µM. Take `COc1ccc(Cn2cc(-c3cc(C(F)(F)F)nc(S(=O)(=O)Cc4cccnc4)n3)ccc2=O)cc1OC` [Compound 188]: the concentration for a half-maximal effect (EC50) was less than 10 µM. As to `COc1ccc(Cn2cc(-c3cc(C(F)(F)F)nc(S(=O)(=O)Cc4ccccn4)n3)ccc2=O)cc1OC` [Compound 189], the EC50 was less than 10 µM.

As for `COc1ccc(Cn2cc(-c3cc(C(F)(F)F)nc(S(=O)(=O)Cc4ccncc4)n3)ccc2=O)cc1OC` [Compound 190], the EC50 is less than 10 µM. In the case of `COc1ccc(Cn2cc(-c3cc(C(F)(F)F)nc([S+]([O-])Cc4ccncc4)n3)ccc2=O)cc1OC` (centres unmarked) [Compound 191], the EC50 was less than 10 µM. `COc1ccc(Cn2cc(-c3cc(C(F)(F)F)nc([S+]([O-])Cc4cccnc4)n3)ccc2=O)cc1OC` (centres unmarked) [Compound 192]: the EC50 was less than 10 µM. For `COc1ccc(Cn2cc(-c3cc(C(F)(F)F)nc([S+]([O-])Cn4ncnn4)n3)ccc2=O)cc1OC` (centres unmarked) [Compound 193], the EC50 was less than 10 µM. As for `COc1ccc(Cn2cc(-c3cc(C(F)(F)F)nc(S(=O)(=O)CN4CCCC4)n3)ccc2=O)cc1OC` [Compound 194], the EC50 was less than 10 µM.

Turning to `COc1ccc(Cn2cc(-c3cc(C(F)(F)F)nc(S(=O)(=O)Cn4ncnn4)n3)ccc2=O)cc1OC` [Compound 195], the EC50 was less than 10 µM. Consider `COc1ccc(Cn2cc(-c3cc(C(F)(F)F)nc(S(=O)(=O)CN4CCCCC4)n3)ccc2=O)cc1OC` [Compound 196], for which the EC50 is less than 10 µM. On to `COc1ccc(Cn2cc(-c3cc(C(F)(F)F)nc([S+]([O-])CN4CCCCC4)n3)ccc2=O)cc1OC` (centres unmarked) [Compound 197], for which the EC50 is less than 10 µM. With `COc1ccc(Cn2cc(-c3cc(C(F)(F)F)nc([S+]([O-])CN4CCCC4)n3)ccc2=O)cc1OC` (centres unmarked) [Compound 198], the EC50 is less than 10 µM. As to `COc1ccc(Cn2cc(-c3cc(C(F)(F)F)nc(S(=O)(=O)CN(C)C)n3)ccc2=O)cc1OC` [Compound 199], the EC50 was less than 10 µM. Still for that read-out and setting: to `COc1ccc(Cn2cc(-c3cc(C(F)(F)F)nc([S+]([O-])CN(C)C)n3)ccc2=O)cc1OC` (centres unmarked) [Compound 200] belongs less than 10 µM; to `COc1ccc(Cn2cc(-c3cc(F)nc(S(C)(=O)=O)n3)ccc2=O)cc1OC` [Compound 201, 1-(3,4-dimethoxybenzyl)-5-(6-fluoro-2-(methylsulfonyl)pyrimidin-4-yl)pyridin-2 (1H)-one], less than 10 µM; to `COc1ccc(Cn2cc(-c3cc(C(F)F)nc([S+](C)[O-])n3)ccc2=O)cc1OC` (centres unmarked) [Compound 202, 5-(6-(difluoromethyl)-2-(methylsulfinyl)pyrimidin-4-yl)-1-(3,4-dimethoxybenzyl)pyridin-2 (1H)-one], less than 10 µM. In the case of `COc1ccc(Cn2cc(-c3cc(CF)nc([S+](C)[O-])n3)ccc2=O)cc1OC` (centres unmarked) [Compound 203, 1-(3,4-dimethoxybenzyl)-5-(6-(fluoromethyl)-2-(methylsulfinyl)pyrimidin-4-yl)pyridin-2 (1H)-one], the EC50 was less than 10 µM.

In the case of `COc1ccc(Cn2cc(-c3cc(-c4ccc[nH]4)nc(S(C)(=O)=O)n3)ccc2=O)cc1OC` [Compound 204], the EC50 is less than 10 µM. As for `COc1ccc(Cn2cc(-c3cc(-c4ccc[nH]4)nc([S+](C)[O-])n3)ccc2=O)cc1OC` (centres unmarked) [Compound 205], the EC50 is less than 10 µM. On to `COc1ccc(Cn2cc(-c3cc(-c4ccco4)nc(S(C)(=O)=O)n3)ccc2=O)cc1OC` [Compound 206], for which the EC50 is less than 10 µM. In the case of `COc1ccc(Cn2cc(-c3cc(-c4ccco4)nc([S+](C)[O-])n3)ccc2=O)cc1OC` (centres unmarked) [Compound 207], the EC50 was less than 10 µM. On the same count and under the same terms, as for `COc1ccc(Cn2cc(-c3cc(C4=CCC=C4)nc(S(C)(=O)=O)n3)ccc2=O)cc1OC` [Compound 208], the figure is less than 10 µM. On to `COc1ccc(Cn2cc(-c3cc(C4=CCC=C4)nc([S+](C)[O-])n3)ccc2=O)cc1OC` (centres unmarked) [Compound 209], for which the EC50 is less than 10 µM. Regarding `COc1ccc(Cn2cc(-c3cc(-c4ncco4)nc([S+](C)[O-])n3)ccc2=O)cc1OC` (centres unmarked) [Compound 210], the EC50 was less than 10 µM.

With `COc1ccc(Cn2cc(-c3cc(-c4ncco4)nc(S(C)(=O)=O)n3)ccc2=O)cc1OC` [Compound 211], the EC50 was less than 10 µM. Consider `COc1ccc(Cn2cc(-c3cc(-c4cnco4)nc(S(C)(=O)=O)n3)ccc2=O)cc1OC` [Compound 212], for which the EC50 is less than 10 µM. For `COc1ccc(Cn2cc(-c3cc(-c4nccs4)nc([S+](C)[O-])n3)ccc2=O)cc1OC` (centres unmarked) [Compound 213], the EC50 was less than 10 µM.

As to `COc1ccc(Cn2cc(-c3cc(-c4cnco4)nc([S+](C)[O-])n3)ccc2=O)cc1OC` (centres unmarked) [Compound 214], the EC50 is less than 10 µM. Turning to `COc1ccc(Cn2cc(-c3cc(-c4cncs4)nc(S(C)(=O)=O)n3)ccc2=O)cc1OC` [Compound 215], the EC50 was less than 10 µM. For the compound `COc1ccc(Cn2cc(-c3cc(-c4cncs4)nc([S+](C)[O-])n3)ccc2=O)cc1OC` (centres unmarked) [Compound 216], the EC50 is less than 10 µM. On the same count and under the same terms, to `COc1ccc(Cn2cc(-c3cc(-c4nccs4)nc(S(C)(=O)=O)n3)ccc2=O)cc1OC` [Compound 217] belongs less than 10 µM; to `COc1ccc(Cn2cc(-c3cc(-n4cccc4)nc([S+](C)[O-])n3)ccc2=O)cc1OC` (centres unmarked) [Compound 218], less than 10 µM; to `COc1ccc(Cn2cc(-c3cc(-n4cccc4)nc(S(C)(=O)=O)n3)ccc2=O)cc1OC` [Compound 219], less than 10 µM. Still for that read-out and setting: to `COc1ccc(Cn2cc(-c3cc(-n4cccn4)nc([S+](C)[O-])n3)ccc2=O)cc1OC` (centres unmarked) [Compound 220] belongs less than 10 µM.

With `COc1ccc(Cn2cc(-c3cc(-n4ccnc4)nc([S+](C)[O-])n3)ccc2=O)cc1OC` (centres unmarked) [Compound 221], the EC50 is less than 10 µM.

Turning to `COc1ccc(Cn2cc(-c3cc(-n4ccnc4)nc(S(C)(=O)=O)n3)ccc2=O)cc1OC` [Compound 222], the EC50 was less than 10 µM. Still for that read-out and setting: as for `C[S+]([O-])c1nc(-c2ccc(=O)n(Cc3ccc4c(c3)OCO4)c2)cc(C(F)(F)F)n1` (centres unmarked) [Compound 223], the figure is less than 10 µM. In the case of `CS(=O)(=O)c1nc(-c2ccc(=O)n(Cc3ccc4ocnc4c3)c2)cc(C(F)(F)F)n1` [Compound 224], the EC50 was less than 10 µM.

As for `C[S+]([O-])c1nc(-c2ccc(=O)n(Cc3ccc4ocnc4c3)c2)cc(C(F)(F)F)n1` (centres unmarked) [Compound 225], the EC50 is less than 10 µM. As to `CS(=O)(=O)c1nc(-c2ccc(=O)n(Cc3ccc4scnc4c3)c2)cc(C(F)(F)F)n1` [Compound 226], the EC50 was less than 10 µM. As to `C[S+]([O-])c1nc(-c2ccc(=O)n(Cc3ccc4ocnc4c3)c2)cc(C(F)(F)F)n1` (centres unmarked) [Compound 227], the EC50 is less than 10 µM. Regarding `CS(=O)(=O)c1nc(-c2ccc(=O)n(Cc3ccc4[nH]cnc4c3)c2)cc(C(F)(F)F)n1` [Compound 228], the EC50 was less than 10 µM. As for `C[S+]([O-])c1nc(-c2ccc(=O)n(Cc3ccc4[nH]cnc4c3)c2)cc(C(F)(F)F)n1` (centres unmarked) [Compound 229], the EC50 is less than 10 µM. On to `CS(=O)(=O)c1nc(-c2ccc(=O)n(Cc3ccc4c(c3)OCCO4)c2)cc(C(F)(F)F)n1` [Compound 230], for which the EC50 was less than 10 µM. As to `C[S+]([O-])c1nc(-c2ccc(=O)n(Cc3ccc4c(c3)OCCO4)c2)cc(C(F)(F)F)n1` (centres unmarked) [Compound 231], the EC50 was less than 10 µM. As to `CNc1ccc(Cn2cc(-c3cc(C(F)(F)F)nc(S(C)(=O)=O)n3)ccc2=O)cc1NC` [Compound 232], the EC50 was less than 10 µM. For the compound `CNc1ccc(Cn2cc(-c3cc(C(F)(F)F)nc([S+](C)[O-])n3)ccc2=O)cc1NC` (centres unmarked) [Compound 233], the EC50 is less than 10 µM. `CS(=O)(=O)c1nc(-c2ccc(=O)n(Cc3ccc4c(c3)NCCN4)c2)cc(C(F)(F)F)n1` [Compound 234]: the EC50 was less than 10 µM. Turning to `C[S+]([O-])c1nc(-c2ccc(=O)n(Cc3ccc4c(c3)NCCN4)c2)cc(C(F)(F)F)n1` (centres unmarked) [Compound 235], the EC50 was less than 10 µM. As to `CNc1ccc(Cn2cc(-c3cc(C(F)(F)F)nc(S(C)(=O)=O)n3)ccc2=O)cc1OC` [Compound 236], the EC50 is less than 10 µM.

As for `CNc1ccc(Cn2cc(-c3cc(C(F)(F)F)nc([S+](C)[O-])n3)ccc2=O)cc1OC` (centres unmarked) [Compound 237], the EC50 is less than 10 µM. For `CNc1cc(Cn2cc(-c3cc(C(F)(F)F)nc(S(C)(=O)=O)n3)ccc2=O)ccc1OC` [Compound 238], the EC50 is less than 10 µM. For `CNc1cc(Cn2cc(-c3cc(C(F)(F)F)nc([S+](C)[O-])n3)ccc2=O)ccc1OC` (centres unmarked) [Compound 239], the EC50 is less than 10 µM. On the same count and under the same terms, to `CS(=O)(=O)c1nc(-c2ccc(=O)n(Cc3ccc4c(c3)OCCN4)c2)cc(C(F)(F)F)n1` [Compound 240] belongs less than 10 µM. Consider `C[S+]([O-])c1nc(-c2ccc(=O)n(Cc3ccc4c(c3)OCCN4)c2)cc(C(F)(F)F)n1` (centres unmarked) [Compound 241], for which the EC50 is less than 10 µM. For `CS(=O)(=O)c1nc(-c2ccc(=O)n(Cc3ccc4c(c3)NCCO4)c2)cc(C(F)(F)F)n1` [Compound 242], the EC50 is less than 10 µM. Consider `C[S+]([O-])c1nc(-c2ccc(=O)n(Cc3ccc4c(c3)NCCO4)c2)cc(C(F)(F)F)n1` (centres unmarked) [Compound 243], for which the EC50 is less than 10 µM.

Still in this experiment, the particulars now being: U2OS_Bim cells; means of duplicates; numbering of Tables 4a/4b; read-out: EC50.
As to `COc1ccc(Cn2cc(-c3cc(C(F)F)nc(S(=O)(=O)CCCNC(C)=O)n3)ccc2=O)cc1OC` [Compound 185, N-(3-((4-(difluoromethyl)-6-(1-(3,4-dimethoxybenzyl)-6-oxo-1,6-dihydropyridin-3-yl)pyrimidin-2-yl)sulfonyl)propyl)acetamide], the EC50 was 1 to 10 µM.

Consider `COc1ccc(Cn2cc(-c3cc(C(F)F)nc(S(=O)(=O)CCCS(=O)(=O)c4nc(-c5ccc(=O)n(Cc6ccc(OC)c(OC)c6)c5)cc(C(F)F)n4)n3)ccc2=O)cc1OC` [Compound 186, 5,5′-(2,2′-(propane-1,3-diyldisulfonyl)bis(6-(difluoromethyl)pyrimidine-4,2-diyl))bis(1-(3,4-dimethoxybenzyl)pyridin-2 (1H)-one)], for which the EC50 fell in the range of 0.001 to 1 µM.
